Converted amounts (≈) assume the structure as drawn. Counter-ions that a name gives are not always drawn. Like-named read-outs stand apart in the source and are kept apart here.
Columns and labels:
Type in all cases: cell-based
[1] = system: efflux mutants of P. aeruginosa; test: Broth microdilution MIC (NCCLS), P. aeruginosa efflux mutants; conditions: for MICs: efflux mutants of P. aeruginosa; for MIC: Pseudomonas aeruginosa, read-out: MICs
Procedure: (§1) Representative bis-quinazolines were tested for antibacterial activity using the […] microdilution method to determine their minimum inhibitory concentrations (MICs). All compounds were tested using standard methods in accordance with NCCLS guidelines (National Committee for Clinical Laboratory Standards. 2003. Methods for dilution antimicrobial susceptibility testing for bacteria that grow aerobically. Approved Standard M-7 A-6, NCCLS, Wayne, Pa.). The bacterial strains used in the susceptibility tests were obtained from the American Type Culture Collection (ATCC) and included resistant phenotypes such as oxacillin-resistant S. aureus (ORSA) and vancomycin-resistant enterococci (VRE). The minimum bactericidal concentrations (MBCs) were determined for selected organisms. The effect of protein binding on the antibacterial activity of representative bis-quinazolines were determined by conducting MIC tests in the presence of human serum.

[2] = system: S. aureus, E. faecalis, S. pyogenes and S. pneumoniae; test: Broth microdilution MIC (NCCLS), gram-positive strains
Procedure: as §1

H. influenzae = test: Broth microdilution MIC (NCCLS), H. influenzae; conditions: Haemophilus influenzae; some strains of H. influenzae
Procedure: as §1

[3] = system: efflux mutants of E. coli; test: Broth microdilution MIC (NCCLS), E. coli efflux mutants; conditions: Escherichia coli, read-out: MICs
Procedure: as §1

M. catarrhalis = test: Broth microdilution MIC (NCCLS), M. catarrhalis; conditions: Moraxella catarrhalis, read-out: MIC range
Procedure: as §1

[4] = range against some strains of S. aureus, E. faecalis, S. pyogenes and S. pneumoniae, read-out: MIC

## 2-[4-Hydroxy-6-(2-morpholin-4-yl-ethoxy)-quinazolin-2-ylamino]-6,7-dimethoxy-quinazolin-4-ol trifluoroacetate salt [Example 150]
[1]
  MICs: 64 µg/mL

## Cc1nc(Nc2nc(C)c3ccc4c(c3n2)OCCO4)nc2ccc(OCCN3CCC(O)C3)cc12 (centres unmarked) [Example 12, 1-{2-[4-Methyl-2-(8-methyl-2,3-dihydro-1,4-dioxa-5,7-diaza-phenanthren-6-ylamino)-quinazolin-6-yloxy]-ethyl}-pyrrolidin-3-ol]
[2]
  MIC: 0.06 to 16 µg/mL (≈ 0.123 to 32.8 µM)
H. influenzae
  MIC: 16 to 32 µg/mL (≈ 32.8 to 65.5 µM)
[3]
  MIC: 16 to 64 µg/mL (≈ 32.8 to 131 µM)
[1]
  MIC: 64 µg/mL (≈ 131 µM)
M. catarrhalis
  MIC: 2 to 64 µg/mL (≈ 4.09 to 131 µM)

## COc1ccc2nc(Nc3nc(O)c4cc(OC)c(OC)c(OC)c4n3)nc(C)c2c1.O=C(O)C(F)(F)F [Example 18, 6,7,8-Trimethoxy-2-(6-methoxy-4-methyl-quinazolin-2-ylamino)-quinazolin-4-ol trifluoroacetate salt]
[2]; [4]
  MIC: 0.06 to 16 µg/mL
H. influenzae
  MIC: 16 to 32 µg/mL
[3]
  MIC: 16 to 64 µg/mL
[1]
  MIC: 64 µg/mL
M. catarrhalis; some strains of M. catarrhalis
  MIC: 2 to 64 µg/mL

## COc1ccc2nc(Nc3nc(O)c4cc(C)cc(C)c4n3)nc(C)c2c1 [Example 19, 2-(6-Methoxy-4-methyl-quinazolin-2-ylamino)-6,8-dimethyl-quinazolin-4-ol]
[2]
  MIC: 0.06 to 16 µg/mL (≈ 0.166 to 44.3 µM)
H. influenzae
  MIC: 16 to 32 µg/mL (≈ 44.3 to 88.5 µM)
[3]
  MIC: 16 to 64 µg/mL (≈ 44.3 to 177 µM)
[1]
  MIC: 64 µg/mL (≈ 177 µM)
M. catarrhalis
  MIC: 2 to 64 µg/mL (≈ 5.53 to 177 µM)

## COc1ccc2nc(Nc3nc(O)c4cc(C)cc(Br)c4n3)nc(C)c2c1 [Example 39, 8-Bromo-2-(6-methoxy-4-methyl-quinazolin-2-ylamino)-6-methyl-quinazolin-4-ol trifluoroacetate salt]
[2]
  MIC: 0.06 to 16 µg/mL
H. influenzae
  MIC: 16 to 32 µg/mL
[3]
  MIC: 16 to 64 µg/mL
[1]
  MIC: 64 µg/mL
M. catarrhalis
  MIC: 2 to 64 µg/mL

## COc1cc2nc(Nc3nc(O)c4cc([N+](=O)[O-])cc(C)c4n3)nc(C)c2cc1OC.O=C(O)C(F)(F)F [Example 66]
[1]
  MICs: 64 µg/mL

## COc1cc(OC)c2nc(Nc3nc(O)c4c(OC)c(OC)ccc4n3)nc(C)c2c1.O=C(O)C(F)(F)F [Example 134, 2-(6,8-Dimethoxy-4-methyl-quinazolin-2-ylamino)-5,6-dimethoxy-quinazolin-4-ol TFA salt]
[2]; [4]
  MIC: 0.06 to 16 µg/mL

## COc1cc(OC)c2nc(Nc3nc(O)c4c(OC)c(OC)ccc4n3)nc(C)c2c1.Cl [Example 135, 2-(6,8-Dimethoxy-4-methyl-quinazolin-2-ylamino)-5,6-dimethoxy-quinazolin-4-ol HCl salt]
[2]; [4]
  MIC: 0.06 to 16 µg/mL

## COc1cc2nc(Nc3nc(O)c4cc(OCCO)ccc4n3)nc(C)c2cc1OC.O=C(O)C(F)(F)F [Example 136, 2-(6,7-Dimethoxy-4-methyl-quinazolin-2-ylamino)-6-(2-hydroxy-ethoxy)-quinazolin-4-ol trifluoroacetate salt]
[2]; [4]
  MIC: 0.06 to 16 µg/mL

## COc1cc(OC)c2nc(Nc3nc(O)c4cc(OCCO)ccc4n3)nc(C)c2c1.O=C(O)C(F)(F)F [Example 137, 2-(6,8-Dimethoxy-4-methyl-quinazolin-2-ylamino)-6-(2-hydroxy-ethoxy)-quinazolin-4-ol trifluoroacetate salt]
[2]; [4]
  MIC: 0.06 to 16 µg/mL

## COc1cc2nc(Nc3nc(O)c4cc(OCCN(C)CCO)ccc4n3)nc(C)c2cc1OC.O=C(O)C(F)(F)F [Example 139, 2-(6,7-Dimethoxy-4-methyl-quinazolin-2-ylamino)-6-{2-[(2-hydroxy-ethyl)-methyl-amino]-ethoxy}-quinazolin-4-ol trifluoroacetate salt]
[2]; [4]
  MIC: 0.06 to 16 µg/mL

## COc1cc(OC)c2nc(Nc3nc(O)c4cc(OCCN5CCOCC5)ccc4n3)nc(C)c2c1.O=C(O)C(F)(F)F [Example 141, 2-(6,8-Dimethoxy-4-methyl-quinazolin-2-ylamino)-6-(2-morpholin-4-yl-ethoxy)-quinazolin-4-ol trifluoroacetate salt]
[2]; [4]
  MIC: 0.06 to 16 µg/mL

## COc1cc2nc(Nc3nc(O)c4cc(OCCN5CCC(O)C5)ccc4n3)nc(C)c2cc1OC.O=C(O)C(F)(F)F (centres unmarked) [Example 155, 2-(6,7-Dimethoxy-4-methyl-quinazolin-2-ylamino)-6-[2-(3-hydroxy-pyrrolidin-1-yl)-ethoxy]-quinazolin-4-ol trifluoroacetate salt]
[1]
  MICs: 64 µg/mL

## COc1cc2nc(Nc3nc(O)c4cc(OCCN5CCC(O)C5)ccc4n3)nc(C)c2cc1OC.O=C(O)C(F)(F)F (centres unmarked) [Example 156, 2-(6,7-Dimethoxy-4-methyl-quinazolin-2-ylamino)-6-[2-(3-hydroxy-pyrrolidin-1-yl)-ethoxy]-quinazolin-4-ol trifluoroacetate salt]
[1]
  MICs: 64 µg/mL

## COc1cc2nc(Nc3nc(O)c4cc(OCCNC(CO)CC(C)C)ccc4n3)nc(C)c2cc1OC (centres unmarked) [Example 162, 2-(6,7-Dimethoxy-4-methyl-quinazolin-2-ylamino)-6-{2-[(1-hydroxymethyl-3-methylbutyl)-amino]-ethoxy}-quinazolin-4-olTrifluoroacetate salt]
[1]
  MICs: 64 µg/mL

## CCN(CCO)CCOc1ccc2nc(Nc3nc(C)c4cc(OC)cc(OC)c4n3)nc(O)c2c1.O=C(O)C(F)(F)F [Example 167, 2-(6,8-Dimethoxy-4-methyl-quinazolin-2-ylamino)-6-{2-[ethyl-(2-hydroxy-ethyl)-amino]-ethoxy}-quinazolin-4-ol trifluoroacetate salt]
[2]; [4]
  MIC: 0.06 to 16 µg/mL

## COc1cc(OC)c2nc(Nc3nc(O)c4cc(OCCN5CCCC5CO)ccc4n3)nc(C)c2c1.O=C(O)C(F)(F)F (centres unmarked) [Example 168, 2-(6,8-Dimethoxy-4-methyl-quinazolin-2-ylamino)-6-[2-(2-hydroxymethyl-pyrrolidin-1-yl)-ethoxy]-quinazolin-4-ol trifluoroacetate salt]
[2]; [4]
  MIC: 0.06 to 16 µg/mL

## COc1cc2nc(Nc3nc(O)c4cc(OCCN5CCCCC5CO)ccc4n3)nc(C)c2cc1OC.O=C(O)C(F)(F)F (centres unmarked) [Example 173, 2-(6,7-Dimethoxy-4-methyl-quinazolin-2-ylamino)-6-[2-(2-hydroxymethyl-piperidin-1-yl)-ethoxy]-quinazolin-4-ol trifluoroacetate salt]
[2]; [4]
  MIC: 0.06 to 16 µg/mL

## COc1cc2nc(Nc3nc(O)c4cc(OCCn5cnnc5)ccc4n3)nc(C)c2cc1OC.O=C(O)C(F)(F)F [Example 174, 2-(6,7-Dimethoxy-4-methyl-quinazolin-2-ylamino)-6-(2-[1,2,4]triazol-4-yl-ethoxy)-quinazolin-4-ol trifluoroacetate salt]
[2]; [4]
  MIC: 0.06 to 16 µg/mL

## COc1cc2nc(Nc3nc(O)c4cc(OCCN5CCN(CCO)CC5)ccc4n3)nc(C)c2cc1OC.O=C(O)C(F)(F)F [Example 175, 2-(6,7-Dimethoxy-4-methyl-quinazolin-2-ylamino)-6-{2-[4-(2-hydroxy-ethyl)-piperazin-1-yl]-ethoxy}-quinazolin-4-ol trifluoroacetate salt]
[2]; [4]
  MIC: 0.06 to 16 µg/mL

## COc1cc2nc(Nc3nc(O)c4cc(OCCNNCCO)ccc4n3)nc(C)c2cc1OC.O=C(O)C(F)(F)F [Example 176, 2-(6,7-Dimethoxy-4-methyl-quinazolin-2-ylamino)-6-{2-[N′-(2-hydroxy-ethyl)-hydrazino]-ethoxy}-quinazolin-4-ol trifluoroacetate salt]
[2]; [4]
  MIC: 0.06 to 16 µg/mL

## COc1cc2nc(Nc3nc(O)c4cc(OCCN5CC(C)OC(C)C5)ccc4n3)nc(C)c2cc1OC.O=C(O)C(F)(F)F (centres unmarked) [Example 177, 2-(6,7-Dimethoxy-4-methyl-quinazolin-2-ylamino)-6-[2-(2,6-dimethyl-morpholin-4-yl)-ethoxy]-quinazolin-4-ol trifluoroacetate salt]
[2]; [4]
  MIC: 0.06 to 16 µg/mL

## COc1cc2nc(Nc3nc(O)c4cc(OCCNCCOCCO)ccc4n3)nc(C)c2cc1OC.O=C(O)C(F)(F)F [Example 179, 2-(6,7-Dimethoxy-4-methyl-quinazolin-2-ylamino)-6-{2-[2-(2-hydroxy-ethoxy)-ethylamino]-ethoxy}-quinazolin-4-ol trifluoroacetate salt]
[2]; [4]
  MIC: 0.06 to 16 µg/mL

## COc1cc2nc(Nc3nc(O)c4cc(OCCN5CCCC5CN5CCCC5)ccc4n3)nc(C)c2cc1OC.O=C(O)C(F)(F)F (centres unmarked) [Example 180, 2-(6,7-Dimethoxy-4-methyl-quinazolin-2-ylamino)-6-[2-(2-pyrrolidin-1-ylmethyl-pyrrolidin-1-yl)-ethoxy]-quinazolin-4-ol trifluoroacetate salt]
[2]; [4]
  MIC: 0.06 to 16 µg/mL

## COc1cc2nc(Nc3nc(O)c4cc(OCCNC5CCCCC5O)ccc4n3)nc(C)c2cc1OC.O=C(O)C(F)(F)F (centres unmarked) [Example 181, 2-(6,7-Dimethoxy-4-methyl-quinazolin-2-ylamino)-6-[2-(2-hydroxy-cyclohexylamino)-ethoxy]-quinazolin-4-ol trifluoroacetate salt]
[2]; [4]
  MIC: 0.06 to 16 µg/mL

## COc1cc2nc(Nc3nc(O)c4cc(OCCN(C)Cc5cccnc5)ccc4n3)nc(C)c2cc1OC.O=C(O)C(F)(F)F [Example 182, 2-(6,7-Dimethoxy-4-methyl-quinazolin-2-ylamino)-6-[2-(methyl-pyridin-3-ylmethyl-amino)-ethoxy]-quinazolin-4-ol trifluoroacetate salt]
[2]; [4]
  MIC: 0.06 to 16 µg/mL

## COc1cc2nc(Nc3nc(O)c4cc(OCCNCCc5ccncc5)ccc4n3)nc(C)c2cc1OC.O=C(O)C(F)(F)F [Example 183, 2-(6,7-Dimethoxy-4-methyl-quinazolin-2-ylamino)-6-[2-(2-pyridin-4-yl-ethylamino)-ethoxy]-quinazolin-4-ol TFA salt]
[2]; [4]
  MIC: 0.06 to 16 µg/mL

## COc1cc2nc(Nc3nc(O)c4cc(OCCN(C)Cc5ccncc5)ccc4n3)nc(C)c2cc1OC.O=C(O)C(F)(F)F [Example 184, 2-(6,7-Dimethoxy-4-methyl-quinazolin-2-ylamino)-6-[2-(methyl-pyridin-4-ylmethyl-amino)-ethoxy]-quinazolin-4-ol TFA salt]
[2]; [4]
  MIC: 0.06 to 16 µg/mL

Reference: patent publication US20050124562A1, “Bis-quinazoline compounds for the treatment of bacterial infections” (priority 2003, published 2005)
